Measured values taken from PMC10292217, “Gene-nutrient interactions that impact magnesium homeostasis increase risk for neural tube defects in mice exposed to dolutegravir” (Frontiers in Cell and Developmental Biology, 2023).
Like-named read-outs stand apart in the source and are kept apart here.

Legend:
[1] = Plasma DTG pharmacokinetics (LC-MS/MS, NCA) in LM/Bc mice; type: in vivo, mouse; details: for Tmax / half-life / Cmax / AUC(0-t): female, mouse, plasma; for half-life: read-out: t½ (converted); for Cmax / AUC(0-t): high Mg2+ soy diet; for AUC(0-t): read-out: AUC 0-24
Method: Baseline blood samples were collected via cheek bleed (submandibular vein) from all animals prior to timed matings, and again on GD 9.5. A Goldenrod sterile lancet (MEDIpoint, Inc., Mineola, NY) was used to lance the submandibular vein, and 3-4 drops (∼100 µL) of blood was collected into a Microvette CB 300 Lithium Heparin plasma separator tube (SARSTEDT AG and Co., Germany) and then centrifuged at 2000 g for 8 min. Plasma samples were frozen at −80 °C for LCMS analysis of DTG or ICP-MS determination of cations. DTG detection and quantification was performed at Creighton University using a previously published method ([Bennetto-Hood et al., 2014]) with minor modifications. Briefly, a seven-point calibration curve ranging from 0.1 to 100 μg/mL was challenged with quality control vials at known concentrations of 5, 20, and 80 μg/mL. All controls and calibrators with known drug concentrations were added to DTG-free mouse plasma. To initiate protein precipitation, 120 µL of acetonitrile containing 10 ng/mL of d5- DTG internal standard (Cayman Chemical, Ann Arbor, MI) was added to 20 µL mouse plasma (calibrators, controls, unknown samples), and mixed for 2 min on an orbital shaker (1500 rpm), followed by centrifugation at 2,655 g for 5 min. […] LC-MSMS separation was achieved using Agilent 1200 liquid chromatography devices and an AB Sciex 3200 Q-Trap mass spectrometer. The mobile phase consisted of an isocratic gradient of 0.1% formic acid in water:0.1% formic acid in acetonitrile (60:40) with a flow rate of 0.475 mL/min across an XBridge C18 column (Waters, Milford, MA, United States). […] Strains and treatments were compared by 2-way ANOVA followed by post hoc analyses. Pairwise comparisons of the proportion of affected embryos in each litter between strains and treatments were evaluated by the Fisher least significant difference method. Index value pairwise comparisons were evaluated using the Kruskal–Wallis nonparametric test in Sigma XL (v9.0). Comparisons of cation levels in urine and plasma between strains and between diets as well as the effect of DTG on the incidence of NTDs in LM/Bc dams was performed by one-way ANOVA followed by Dunnett’s multiple comparisons test using GraphPad Prism version 9.5.0 for Windows. The level of significance p < 0.05 was used for all analyses. DTG pharmacokinetics were evaluated by noncompartmental analysis (NCA) using PKsolver ([Zhang et al., 2010]).

C57BL/6J mice = test system: C57BL/6J mice; set-up: method as in Mohan et al., 2021; details: ref Mohan et al., 2021, cited from earlier work
C3H/HeJ mice = test system: C3H/HeJ mice; set-up: method as in Bade et al., 2021; details: 50 mg/kg/d DTG oral gavage from GD 0.5; 1 NTD affected pup in 17 litters; ref Bade et al., 2021; cited from earlier work
[2] = test system: Madin-Darby canine kidney II cells; set-up: method as in Zamek-Gliszczynski et al., 2019; details: ref Zamek-Gliszczynski et al., 2019; cited from earlier work
[3] = 750 mg/kg/day, pregnant LM/Bc mice, 10 daily oral doses DTG750
[4] = 750 mg/kg/day, pregnant LM/Bc mice, 10 daily oral doses DTG750 GD 0.5-GD 9.5
[5] = 750 mg/kg, non-pregnant LM/Bc mice, single oral dose DTG750
[6] = non-pregnant LM/Bc mice, single oral dose DTG 750 mg/kg
[7] = non-pregnant mouse single dose DTG750 vs human 50 mg single dose
[8] = non-pregnant mouse single dose DTG750 vs human 100 mg single dose
[9] = non-pregnant mouse single dose DTG750 vs human 100 mg × 7d
[10] = pregnant mouse 10 daily doses DTG750 vs pregnant women 2nd trimester 50 mg/d

## C[C@@H]1CCO[C@H]2Cn3cc(C(=O)NCc4ccc(F)cc4F)c(=O)c(O)c3C(=O)N12 [DTG, Dolutegravir]
[1]; [3]
  Tmax: 2 h
  half-life: 4.4 h
[1]; [4]
  Cmax: 128 µg/mL
  AUC(0-t): 847 µg·h/mL
[1]; [5]
  Tmax: 2 h
  half-life: 6.3 h
[1]; [6]
  Cmax: 133 µg/mL
  AUC(0-t): 1300 µg·h/mL
[1]; [7]
  AUC 0-24, mouse multiplication factor vs human: 18.4 x
  Cmax, mouse multiplication factor vs human: 28.9 x
[1]; [8]
  AUC 0-24, mouse multiplication factor vs human: 9.9 x
  Cmax, mouse multiplication factor vs human: 16.4 x
[1]; [9]
  AUC 0-24, mouse multiplication factor vs human: 14.1 x
  Cmax, mouse multiplication factor vs human: 19.8 x
[1]; [10]
  AUC 0-24, mouse multiplication factor vs human: 17.8 x
  Cmax, mouse multiplication factor vs human: 35.3 x
C57BL/6J mice; 2.5 mg/kg/d oral DTG co-formulated with TDF and FTC from GD 0.5, folate-sufficient diet, 5/150 litters
  NTD-affected litters: 3.3%
C57BL/6J mice; 5x higher dose, n = 111 litters
  NTDs observed: no NTDs were observed
C3H/HeJ mice
  NTD-affected litters: 5.8%
[2]
  effect on inhibition of folate transport: did not find a significant DTG or INSTI class effect
